Patent US10377743B2, “Inhibitors of RAS and methods of use thereof” (Araxes Pharma LLC, priority 2016, dated 2019)

Molecular target: T1, KRAS G12C 1-169, his-tagged protein, GDP-loaded (Homo sapiens, UniProt P01116, G12C)
T1 construct: KRAS G12C 1-169, his-tagged protein, GDP-loaded
Assay: Biochemical assay: covalent binding (modification %) to KRAS G12C by mass spectrometry
Settings: 2 hour incubation period
Experimental: Test compounds were prepared as 10 mM stock solutions in DMSO (Fisher cat# BP-231-100). KRAS G12C 1-169, his-tagged protein, GDP-loaded was diluted to 2 μM or 0.5 μM in buffer (20 mM Hepes, 150 mM NaCl, 1 mM MgCl2). Compounds were tested for activity as follows:
Compounds were diluted to 50× final test concentration in DMSO in 96-well storage plates. Compound stock solutions were vortexed before use and observed carefully for any sign of precipitation. Dilutions were as follow: • For 100 μM final compound concentration, compounds were diluted to 5000 μM (5 μL 10 mM compound stock+5 μL DMSO and mixed well by pipetting. • For 30 μM final compound concentration, compounds were diluted to 1500 μM (3 μL 10 mM compound stock+17 μL DMSO) and mixed well by pipetting. • For 10 μM final compound concentration, compounds were diluted to 500 μM (2 μL 10 mM compound stock+38 μL DMSO) and mixed well by pipetting. 49 μL of the stock protein solution was added to each well of a 96-well PCR plate (Fisher cat#1423027). 1 μl of the diluted 50× compounds were added to appropriate wells in the PCR plate using 12-channel pipettor. Reactions were mixed carefully and thoroughly by pipetting up/down with a 200 μL multi-channel pipettor. The plate was sealed well with aluminum plate seal, and stored in drawer at room temperature for 10 minutes, 30 minutes, 2 hours or 24 hours. 5 μL of 2% formic acid (Fisher cat# A117) in de-ionized H2O was then added to each well followed by mixing with a pipette. The plate was then resealed with aluminum seal and stored on dry ice until analyzed as described below.
The above described assays were analyzed by mass spectrometry according to one of the following two procedures:
The MS instrument is set to positive polarity, 2 GHz resolution, and low mass (1700) mode and allowed to equilibrate for 30 minutes. The instrument is then calibrated, switched to acquisition mode and the appropriate method loaded.
After another 30 minute equilibration time, a blank batch (i.e., buffer) is run to ensure equipment is operating properly. The samples are thawed at 37° C. for 10 minutes, briefly centrifuged, and transfer to the bench top. Wells A1 and H12 are spiked with 1 μL 500 μM internal standard peptide, and the plates centrifuged at 2000×g for 5 minutes. The method is then run and masses of each individual well recorded.
The masses (for which integration data is desired) for each well are pasted into the platemap and exported from the analysis. Masses for the internal standards are exported as well. The data at 50 ppm is extracted for the +19 charge state, and identity of well A1 is assigned using the internal standard spike and integrated. Peak data is exported as a TOF list and the above steps are repeated individually, for the +20, 21, 22, 23, 24, and 25 charge states.
The masses and peak intensities of KRAS G12C protein species were measured using a Dionex RSLCnano system (Thermo Scientific) connected to a Q Exactive Plus mass spectrometer (Thermo Scientific).
[…] of sample was each loaded onto a Aeris™ 3.6 μm WIDEPORE C4 200 Å, LC Column 50×2.1 mm column maintained at 40° C. at a flow rate of 600 μL/min with 20% Solvent A (0.1% formic acid in H2O) and 80% Solvent B (0.1% formic acid in acetonitrile). The liquid chromatography conditions were 20% solvent B for 1 minute, 20% to 60% solvent B for 1.5 minutes, 60% to 90% solvent for 0.5 minute, 90% solvent B for 0.2 minute, 90% to 20% solvent B for 0.2 minute, and then equilibrated for 1.6 minute before the following sample injection. The flow rate was maintained at 600 μL/min throughout the sample analysis.
The mass spectrometer was operated in profile mode at a resolution of 17500, 5 microscans, using 50 msec max injection time and an AGC target of 1×10^6, and a full mass range from 800-1850 m/z was recorded. The HCD trapping gas was optimized for maximum sensitivity for intact proteins. […]

[1] = 10 μM compound (compounds 1-20)
[2] = 8 μM compound (compounds 21-92)

Row | SMILES | Binding % [1] | Binding % [2]
1 | C=CC(=O)N1CC(N2Cc3cc(-c4cc(O)cc5ccccc45)ccc3C2=O)C1 [Compound 1, 2-(1-acryloylazetidin-3-yl)-5-(3-hydroxynaphthalen-1-yl)isoindolin-1-one] | ++ (++ indicates binding activity from 10 to 50%) | –
2 | C=CC(=O)N1CC(N2Cc3ccc(-c4cc(O)cc5ccccc45)cc3C2=O)C1 [Compound 2, 2-(1-acryloylazetidin-3-yl)-6-(3-hydroxynaphthalen-1-yl)isoindolin-1-one] | +++ (+++ indicates binding activity greater than 50%) | –
3 | C=CC(=O)N1CC(N2Cc3ccc(-c4cc(O)cc5ccccc45)cc3CC2=O)C1 [Compound 3, 2-(1-acryloylazetidin-3-yl)-6-(3-hydroxynaphthalen-1-yl)-1,4-dihydroisoquinolin-3(2H)-one] | +++ (+++ indicates binding activity greater than 50%) | –
4 | C=CC(=O)N1CCCC(N2Cc3ccc(-c4cc(O)cc5ccccc45)cc3C2=O)C1 (centres unmarked) [Compound 4, 2-(1-acryloylpiperidin-3-yl)-6-(3-hydroxynaphthalen-1-yl)isoindolin-1-one] | + (+ indicates binding activity up to 10%) | –
5 | C=CC(=O)N1CC(N2Cc3ccc(-c4c(C)ccc5[nH]ncc45)cc3C2=O)C1 [Compound 5, 2-(1-acryloylazetidin-3-yl)-6-(5-methyl-1H-indazol-4-yl)isoindolin-1-one] | ++ (++ indicates binding activity from 10 to 50%) | –
6 | C=CC(=O)N1CC(N2Cc3ccc(-c4c(O)cccc4F)cc3C2=O)C1 [Compound 6, 2-(1-acryloylazetidin-3-yl)-6-(2-fluoro-6-hydroxyphenyl)isoindolin-1-one] | + (+ indicates binding activity up to 10%) | –
7 | C=CC(=O)N1CCC(N2Cc3ccc(-c4cc(O)cc5ccccc45)cc3C2=O)CC1 [Compound 7, 2-(1-acryloylpiperidin-4-yl)-6-(3-hydroxynaphthalen-1-yl)isoindolin-1-one] | + (+ indicates binding activity up to 10%) | –
8 | C=CC(=O)N1CC(N2Cc3ccc(-c4c(C)ccc5cn[nH]c45)cc3C2=O)C1 [Compound 8, 2-(1-acryloylazetidin-3-yl)-6-(6-methyl-1H-indazol-7-yl)isoindolin-1-one] | + (+ indicates binding activity up to 10%) | –
9 | C=CC(=O)N1CCC(N2Cc3ccc(-c4cc(O)cc5ccccc45)cc3C2=O)C1 (centres unmarked) [Compound 9, 2-(1-acryloylpyrrolidin-3-yl)-6-(3-hydroxynaphthalen-1-yl)isoindolin-1-one] | ++ (++ indicates binding activity from 10 to 50%) | –
10 | C=CC(=O)N1CC(N2Cc3ccc(-c4cc(O)ccc4Cl)cc3C2=O)C1 [Compound 10, 2-(1-acryloylazetidin-3-yl)-6-(2-chloro-5-hydroxyphenyl)isoindolin-1-one] | +++ (+++ indicates binding activity greater than 50%) | –
11 | C=CC(=O)N1CC(N2Cc3ccc(-c4cc(O)ccc4C)cc3C2=O)C1 [Compound 11, 2-(1-acryloylazetidin-3-yl)-6-(5-hydroxy-2-methylphenyl)isoindolin-1-one] | ++ (++ indicates binding activity from 10 to 50%) | –
12 | C=CC(=O)N1CC(N2Cc3c(Cl)cc(-c4cc(O)cc5ccccc45)cc3C2=O)C1 [Compound 12, 2-(1-acryloylazetidin-3-yl)-4-chloro-6-(3-hydroxynaphthalen-1-yl)isoindolin-1-one] | +++ (+++ indicates binding activity greater than 50%) | –
13 | C=CC(=O)N1CC(N2Cc3c(Cl)cc(-c4cc(O)ccc4Cl)cc3C2=O)C1 [Compound 13, 2-(1-acryloylazetidin-3-yl)-4-chloro-6-(2-chloro-5-hydroxyphenyl)isoindolin-1-one] | ++ (++ indicates binding activity from 10 to 50%) | –
14 | C=CC(=O)N1CC(N2Cc3c(C)cc(-c4cc(O)cc5ccccc45)cc3C2=O)C1 [Compound 14, 2-(1-acryloylazetidin-3-yl)-6-(3-hydroxynaphthalen-1-yl)-4-methylisoindolin-1-one] | +++ (+++ indicates binding activity greater than 50%) | –
15 | C=CC(=O)N1CC(N2Cc3c(C)cc(-c4cc(O)ccc4Cl)cc3C2=O)C1 [Compound 15, 2-(1-acryloylazetidin-3-yl)-6-(2-chloro-5-hydroxyphenyl)-4-methylisoindolin-1-one] | ++ (++ indicates binding activity from 10 to 50%) | –
16 | C=CC(=O)N1CC(N2Cc3ccc(-c4c[nH]c5ccccc45)cc3C2=O)C1 [Compound 16, 2-(1-acryloylazetidin-3-yl)-6-(1H-indol-3-yl)isoindolin-1-one] | ++ (++ indicates binding activity from 10 to 50%) | –
17 | C=CC(=O)N1CC(N2Cc3c(cc(-c4cc(O)ccc4Cl)cc3C(F)(F)F)C2=O)C1 [Compound 17, 2-(1-acryloylazetidin-3-yl)-6-(2-chloro-5-hydroxyphenyl)-4-(trifluoromethyl)isoindolin-1-one] | ++ (++ indicates binding activity from 10 to 50%) | –
18 | C=CC(=O)NCCN1Cc2ccc(-c3cc(O)cc4ccccc34)cc2C1=O [Compound 18, N-(2-(6-(3-hydroxynaphthalen-1-yl)-1-oxoisoindolin-2-yl)ethyl)acrylamide] | + (+ indicates binding activity up to 10%) | –
19 | C=CC(=O)N1CC(N2Cc3cc(F)c(-c4cc(O)cc5ccccc45)cc3C2=O)C1 [Compound 19, 2-(1-acryloylazetidin-3-yl)-5-fluoro-6-(3-hydroxynaphthalen-1-yl)isoindolin-1-one] | +++ (+++ indicates binding activity greater than 50%) | –
20 | C=CC(=O)N1CC(N2Cc3ccc(Nc4ccccc4)cc3C2=O)C1 [Compound 20, 2-(1-acryloylazetidin-3-yl)-6-(phenylamino)isoindolin-1-one] | + (+ indicates binding activity up to 10%) | –
21 | C=CC(=O)N1CC(N2Cc3cc(F)c(-c4cc(O)ccc4Cl)cc3C2=O)C1 [Compound 21, 2-(1-acryloylazetidin-3-yl)-6-(2-chloro-5-hydroxyphenyl)-5-fluoroisoindolin-1-one] | – | ++ (++ indicates binding activity from 10 to 50%)
22 | C=CC(=O)NCCN1Cc2ccc(-c3c(C)ccc4[nH]ncc34)cc2C1=O [Compound 22, N-(2-(6-(5-methyl-1H-indazol-4-yl)-1-oxoisoindolin-2-yl)ethyl)acrylamide] | – | + (+ indicates binding activity up to 10%)
23 | C=CC(=O)N1CC(N2Cc3c(C(N)=O)cc(-c4cc(O)cc5ccccc45)cc3C2=O)C1 [Compound 23, 2-(1-acryloylazetidin-3-yl)-6-(3-hydroxynaphthalen-1-yl)-1-oxoisoindoline-4-carboxamide] | – | +++ (+++ indicates binding activity greater than 50%)
24 | C=CC(=O)N1CC(N2Cc3c(C#N)cc(-c4cc(O)cc5ccccc45)cc3C2=O)C1 [Compound 24, 2-(1-acryloylazetidin-3-yl)-6-(3-hydroxynaphthalen-1-yl)-1-oxoisoindoline-4-carbonitrile] | – | +++ (+++ indicates binding activity greater than 50%)
25 | C=CC(=O)N1CC(N2C(=O)c3ccc(-c4cc(O)cc5ccccc45)cc3C2=O)C1 [Compound 25, 2-(1-acryloylazetidin-3-yl)-5-(3-hydroxynaphthalen-1-yl)isoindoline-1,3-dione] | – | ++ (++ indicates binding activity from 10 to 50%)
26 | C=CC(=O)N1CC(N2Cc3c(F)cc(-c4cc(O)ccc4Cl)cc3C2=O)C1 [Compound 26, 2-(1-acryloylazetidin-3-yl)-6-(2-chloro-5-hydroxyphenyl)-4-fluoroisoindolin-1-one] | – | ++ (++ indicates binding activity from 10 to 50%)
